Reference: paper PMC11588265, “Auto QSAR-based active learning docking for hit identification of potential inhibitors of Plasmodium falciparum Hsp90 as antimalarial agents” (PLOS ONE, 2024)
“And” between values parts separate entries of the source, which are not always exact repeats. Equal entries are not always repeated. Where two headings read alike, the source gives them in different places.

How the values were obtained:
PfHsp90-NTD = PfHsp90-NTD (Plasmodium falciparum, UniProt Q8IC05); assay: Surface plasmon resonance (MP-SPR) binding to immobilized PfHsp90-NTD
Experimental: The NTD of PfHsp90 was expressed and purified as described in [29] and 20μg/ml of the protein was used to study the binding affinities of selected ligands using BioNavis Navi 420A ILVES multi-parametric surface plasmon resonance (MP-SPR) system (BioNavis, Finland) as previously described. Briefly, PfHsp90-NTD was immobilized to a Carboxymethyl dextran coated sensor slide (BioNavis SPR102- CMD-3D). The sensor slide was activated with 0.1 M EDC/0.05 M NHS. At pH 5, PfHsp90-NTD suspended in 5 mM of sodium acetate was immobilized on one channel of the 3 CMD chip. 1 M ethanolamine HCl was used to deactivate the chip by removing excess NHS = EDC, and the sensor cleaned with NaCl/NaOH unspecific binding molecules. Varying concentrations (0-2000/5000 nM) of compounds FTN-T2 and FTN-T5 were injected and introduced to the flow cell, allowing binding to the surface. Data Viewer (BioNavis, Finland) and Trace Drawer software version 1.8 (Ridgeview instruments, Uppsala, Sweden) were used to process and analyze the steady-state equilibrium constant data and estimate the binding affinities.

[1] = tested on: Chinese Hamster Ovarian (CHO) cells; assay: In vitro cytotoxicity, MTT assay, CHO cells; assay type: cell-based; details: for IC50: CHO cells, MTT, 48 h, read-out: In vitro IC50 Mammalian cells; for Mammalian cells (SI): selectivity index, CHO vs PfNF54
Experimental: (§1) Selectivity of the compounds for the parasites was determined using two cytotoxicity assays both of which were conducted at the H3D Centre. Compounds were screened against the mammalian cells, Chinese Hamster Ovarian (CHO) and hepatocellular carcinoma (HepG2), using the 3-(4,5-dimethylthiazol-2-yl)-2,5-diphenyltetrazoliumbromide (MTT) assay. Cells were plated to a density of 10^5 cells/well in 96-well plates and allowed to attach for 24h. After that compounds were added at various concentrations from 50μM to 16nM and the cells incubated for a further 48h. Emetine was used as the control. After that MTT was added and plates were read 4h later. ‘‘Survival” was plotted against concentration and the IC50-values were obtained using a non-linear dose-response curve fitting analysis via the Dotmatics software platform.

[2] = tested on: P. falciparum NF54 strain; assay: In vitro anti-Plasmodium assay (parasite lactate dehydrogenase); assay type: cell-based; details: P. falciparum NF54 drug-sensitive strain, read-out: In vitro IC50 PfNF54
Experimental: In vitro anti-Plasmodial assays were conducted at the H3D testing centre at the University of Cape Town. All 15 commercially available compounds were evaluated for anti-Plasmodium activity using a parasite lactate dehydrogenase assay as a marker for parasite survival, as previously described by. Briefly, the parasites were synchronized at the ring stage using d-sorbitol in water. Approximately 2 mg/mL stock solutions of reference drugs, chloroquine and artesunate, were prepared in water and DMSO respectively then stored in -20°C. Test compounds and reference drugs were serially diluted to give 10 concentrations with a final volume of 100 μL in each well. Parasites were incubated in the presence of the compounds at 37°C under hypoxic conditions (4% CO2 and 3% O2 in N2) for 72 h. The absorbance was measured at 620 nm on a microplate reader. Survival was plotted against concentration and the IC50-values were obtained using a non-linear dose-response curve fitting analysis via the Dotmatics software platform.

[3] = tested on: hepatocellular carcinoma (HepG2); assay: In vitro cytotoxicity, MTT assay, HepG2 cells; assay type: cell-based, human; details: for IC50: HepG2 cells, MTT, 48 h; for HepG2 (SI): selectivity index, HepG2 vs PfNF54
Experimental: as §1

Plasmodium = details: known inhibitor; ref (11); read-out: anti-Plasmodium IC50; cited from earlier work
P. falciparum 3D7 = details: cited from earlier work
HepG2 = tested on: HepG2; design: method as in Everson et al., 2021; details: ref Everson et al., 2021, cited from earlier work
[4] = tested on: human fibroblast cell line; design: method as in Everson et al., 2021; details: ref Everson et al., 2021, cited from earlier work
[5] = Plasmodium falciparum, NF54, 72 h
[6] = P. falciparum 3D7, chloroquine-sensitive strain, ref Everson et al., 2021, read-out: In vitro IC50 Pf3D7

Chain of PfHsp90-NTD (Q8IC05 entry or part of it): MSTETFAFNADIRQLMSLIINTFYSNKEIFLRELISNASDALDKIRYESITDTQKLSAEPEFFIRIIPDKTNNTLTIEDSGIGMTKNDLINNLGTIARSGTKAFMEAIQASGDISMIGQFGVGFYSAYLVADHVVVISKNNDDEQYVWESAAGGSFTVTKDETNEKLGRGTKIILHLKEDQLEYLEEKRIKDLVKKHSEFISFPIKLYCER

Cn1c(=O)ccn([C@@H]2O[C@H](CO)[C@@H](O)[C@H]2O)c1=O [FTN-T5]
Kd (PfHsp90-NTD; read-out: equilibrium constant denoting affinity KD): 19.9 nM and 19 nM
average SI ([1]; CHO and HepG2 cell lines): ≥ 30
IC50 ([1]; Cricetulus griseus): > 50000 nM
Mammalian cells (SI) [1]: > 35
IC50 ([2]; 72 h): 1440 ± 500 nM
IC50 [2, 5]: < 1500 nM
selectivity index (SI) ([3]; HepG2/CHO cells vs PfNF54): ≥ 29
IC50 ([3]; Homo sapiens): 42300 nM
HepG2 (SI) [3]: 29

COC1=C2C[C@@H](C)C[C@H](OC)[C@H](O)[C@@H](C)/C=C(\C)[C@H](OC(N)=O)[C@@H](OC)/C=C\C=C(/C)C(=O)NC(=CC1=O)C2=O [Geldanamycin, geldanamycin]
IC50 (Plasmodium): 20 nM

Nc1ncnc2c1nc(Br)n2[C@@H]1O[C@H](CO)[C@@H](O)[C@H]1O [FTN-T2]
Kd (PfHsp90-NTD; SPR, immobilized PfHsp90-NTD, read-out: equilibrium constant denoting affinity KD): 7 nM and 7.11 nM
IC50 ([1]; Cricetulus griseus): > 50000 nM
IC50 [2, 5]: 4490 ± 1510 nM
IC50 ([3]; Homo sapiens): 1500 nM
HepG2 (SI) [3]: 0

O=C(N[C@H]1CCc2ccccc21)C1CCN(c2ncccc2-c2nc(-c3ccccc3)no2)CC1 [Compound 10]
IC50 (P. falciparum 3D7; [6]): 1110 ± 970 nM
IC50 (HepG2; HepG2, read-out: In vitro IC50 HepG2): > 24000 nM
HepG2 (SI) (HepG2; selectivity index): > 21
IC50 ([4]; human fibroblast cell line, read-out: In vitro IC50 Mammalian cells): > 24000 nM
Mammalian cells (SI) ([4]; selectivity index): > 21

COc1ccc2c(c1)[nH]c1c(C)nccc12 [Harmine, reference compound]
Kd (PfHsp90-NTD; equilibrium constant denoting affinity KD, SPR, immobilized PfHsp90-NTD): 18.2 nM
IC50 (P. falciparum 3D7; P. falciparum, ref Shahinas et al., 2010, read-out: In vitro IC50 PfNF54/ Pf3D7): 50 nM

O=C(NCc1ccc2c(c1)OCO2)C1CCN(c2ncnc3onc(-c4cccc(F)c4)c23)CC1 [Compound 7]
IC50 (P. falciparum 3D7; [6]): 980 ± 654 nM

Nc1nc2c(ncn2[C@H]2C[C@H](F)[C@@H](CO)O2)c(=O)[nH]1 [FTN-T9]
IC50 [1]: > 50000 nM
Mammalian cells (SI) [1]: > 10
IC50 ([2]; 72 h): 4860 ± 1140 nM
IC50 [3]: > 50000 nM
HepG2 (SI) [3]: > 10
